From US7666437B2, “Intranasal vaccine for use against disease caused by enterotoxigenic Escherichia coli” (Universidad Nacional Autonoma de Mexico, priority 2005, dated 2010)
Several values for one entry are separate records, joined by “and”; a condition that tells them apart may be missing. Identical values can stand only once. Ends that are not written are not given here.

How the values were obtained:
IL-4 = test system: IL-4; design: species or system BALB/c mice; details: mouse, in vivo
T CD4+ lymphocytes = test system: T CD4+ lymphocytes; design: species or system BALB/c mice; details: mouse, in vivo
IL-10 = test system: IL-10; design: species or system BALB/c mice; details: mouse, in vivo
[1] = test system: children's sera after natural infection; type: binding
strain H10407 of ETEC = test system: strain H10407 of ETEC; design: species or system enterotoxigenic Escherichia coli; details: in vivo
T CD8+ lymphocytes = test system: T CD8+ lymphocytes; design: species or system BALB/c mice; details: mouse, in vivo
Dynamic light scattering = type: physicochemical; details: 1 mg/ml in 10 mm PBS pH 7.4; physiological conditions of pH and temperature
Protocol: Dynamic light scattering: One milliliter of 1 mg/ml CLE diluted in 10 mm PBS, pH 7.4 was used to evaluate the dynamic light scattering at different temperatures of 5, 15, 25, 35 and 37° C. Hydrodynamic diameter of CLE was determined using the Zed ziser nano series (Mc Malvern, USA).

IFN-gamma = test system: IFN-gamma; design: species or system BALB/c mice; details: mouse, in vivo

Substance	increase of IL-4 production compared to the control group (IL-4)	increase of T CD4+ lymphocytes with regard to control group (T CD4+ lymphocytes)	response of T CD4+ lymphocytes (T CD4+ lymphocytes)	increase of IL-10 compared to the control group (IL-10)	children's sera that recognized the epitope [1]	positive coprocultures (excretion of ETEC) (strain H10407 of ETEC)	presence of diarrhea after the infection with ETEC (strain H10407 of ETEC)	response of T CD8+ lymphocytes (T CD8+ lymphocytes)	oligomeric structures formed (hydrodynamic diameter) (Dynamic light scattering)	increase of T CD4+ lymphocytes relative to the control (T CD4+ lymphocytes)	response of INF-gamma (IFN-gamma)
CLE: 20 amino acid common linear epitope of ETEC CFA/I fimbria, amino acids 33 to 52, with terminal cysteine in position 53 (YSPASKTFESYRVMTQVHTC; not fully specified; also: disulfide at Cys20, partner not given here; listed as Escherichia coli)	about 2.6 times	about 2 fold	slightly higher	0.8 times	100%	100% and 50%	change of consistency of the feces	slightly higher	trimeric structures	–	–
CTB	–	–	–	–	–	100% and 50%	inconsistency of feces up to the third day	very similar to the control group	–	0.4 times	considerable response
